Experimental data published in US12325697B2 (Nimbus Clio, Inc., priority 2021, dated 2025).

Assays:
[1] = biological target: Recombinant human c-Cbl (aa 47-435) (Homo sapiens (Human), UniProt P22681); assay: c-Cbl Biochemical Assay (TR-FRET)
Summary of the method: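 Biotinylated c-Cbl (6 nM) preincubated 30 min RT with compound, then reacted 60-90 min with Src-Zap70 (2.5-10 nM) and 0.5 mM ATP, pH 7.0 HEPES buffer. Stopped with EDTA; 100 nM Bodipy-ubiquitinated UBE2D2 binding read by TR-FRET after 60 min; IC50 from 4-parameter fit.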

[2] = biological target: Recombinant human Cbl-b (aa 36-427) (Homo sapiens (Human), UniProt Q13191); assay: Cbl-b Biochemical Assay (TR-FRET); settings: read-out: TR-FRET hCbl-b IC50
Summary of the method: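 Two-step TR-FRET: 6 nM biotinylated Cbl-b preincubated 30-60 min with compound, then 60 min at RT with 1-2.5 nM Src-Zap70 and 0.5 mM ATP in HEPES pH 7.0 buffer, 1% DMSO. Stopped with 5 mM EDTA plus 100 nM UBE2D2-Ub-FL-BODIPY and 1 nM streptavidin-Tb, 60 min; 520 nm signal; IC50 from 4-parameter fit.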

Sequence of Recombinant human Cbl-b (aa 36-427) (Q13191 36-427): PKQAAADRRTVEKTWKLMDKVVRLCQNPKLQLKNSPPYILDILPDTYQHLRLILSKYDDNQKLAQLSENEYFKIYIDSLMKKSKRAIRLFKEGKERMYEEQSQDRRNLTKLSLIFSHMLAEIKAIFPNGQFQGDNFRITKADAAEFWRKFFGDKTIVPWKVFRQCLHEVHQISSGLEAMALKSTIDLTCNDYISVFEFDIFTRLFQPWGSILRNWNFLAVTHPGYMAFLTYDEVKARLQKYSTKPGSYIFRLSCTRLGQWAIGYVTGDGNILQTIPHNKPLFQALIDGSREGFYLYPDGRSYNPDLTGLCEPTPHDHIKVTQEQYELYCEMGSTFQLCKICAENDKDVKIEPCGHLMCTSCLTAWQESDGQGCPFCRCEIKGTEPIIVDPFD
Sequence of Recombinant human c-Cbl (aa 47-435) (P22681 47-435): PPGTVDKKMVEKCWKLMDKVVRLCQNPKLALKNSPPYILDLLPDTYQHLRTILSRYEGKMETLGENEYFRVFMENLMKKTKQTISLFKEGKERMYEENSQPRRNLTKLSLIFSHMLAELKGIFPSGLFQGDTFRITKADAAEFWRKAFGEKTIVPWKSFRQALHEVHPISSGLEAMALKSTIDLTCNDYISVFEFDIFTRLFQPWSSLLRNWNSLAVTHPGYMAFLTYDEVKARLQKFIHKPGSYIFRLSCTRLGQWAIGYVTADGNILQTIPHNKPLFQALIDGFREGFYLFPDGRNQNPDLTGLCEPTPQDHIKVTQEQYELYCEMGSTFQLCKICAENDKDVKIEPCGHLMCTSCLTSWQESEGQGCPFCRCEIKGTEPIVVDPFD

Row | SMILES | IC50 [1] [nM] | IC50 [2] [nM]
1 | COC[C@H]1CCCN1Cc1cc(F)c2c(c1)C(=O)N(c1cc(-c3ccc(C#N)cc3-c3nncn3C)cc(C3CC3)n1)C2 [APB-2, 4-[2-Cyclopropyl-6-(4-fluoro-6-{[(2R)-2-(methoxymethyl)pyrrolidin-1-yl]methyl}-1-oxo-3H-isoindol-2-yl)pyridin-4-yl]-3-(4-methyl-1,2,4-triazol-3-yl)benzonitrile] | ≤ 200 | ≤ 200
2 | CCOc1cc(-c2ccc(Cl)cc2-c2nncn2C)cc(N2Cc3c(cc(CNCC4(O)CCC4)cc3C(F)(F)F)C2=O)n1 [AHW-1, 2-{4-[4-Chloro-2-(4-methyl-1,2,4-triazol-3-yl)phenyl]-6-ethoxypyridin-2-yl}-6-({[(1-hydroxycyclobutyl)methyl]amino}methyl)-4-(trifluoromethyl)-3H-isoindol-1-one] | ≤ 200 | ≤ 200
3 | Cn1cnnc1-c1cc(C#N)ccc1-c1cc(C2CC2)nc(N2Cc3ccc([C@H]4COC[C@@H](C5CCC5)N4)cc3C2=O)c1 (stereo in doubt) [AOR-1, rel-4-(2-{6-[(3R,5S)-5-Cyclobutylmorpholin-3-yl]-1-oxo-3H-isoindol-2-yl}-6-cyclopropylpyridin-4-yl)-3-(4-methyl-1,2,4-triazol-3-yl)benzonitrile] | ≤ 200 | ≤ 200
4 | Cn1cnnc1-c1cc(Cl)ccc1-c1cc(C2CC2)nc(N2Cc3ccc(CNCC4CCC4)cc3C2=O)c1 [AIV-2, 2-(4-(4-Chloro-2-(4-methyl-4H-1,2,4-triazol-3-yl)phenyl) -6-cyclopropylpyridin-2-yl)-6-(((cyclobutylmethyl)amino)methyl) isoindolin-1-one] | ≤ 200 | ≤ 200
5 | Cn1cnnc1-c1cc(C#N)ccc1-c1cc(C2CC2)nc(N2Cc3ccc(CNC(C)(C)C4COC4)cc3C2=O)c1 [ANM-2, 4-{2-Cyclopropyl-6-[6-({[2-(oxetan-3-yl)propan-2-yl]amino}methyl)-1-oxo-3H-isoindol-2-yl]pyridin-4-yl}-3-(4-methyl-1,2,4-triazol-3-yl)benzonitrile] | ≤ 200 | ≤ 200
6 | Cn1cnnc1-c1cc(C#N)ccc1-c1cc(C2CC2)nc(N2Cc3ccc(CN4C[C@@H]5C[C@H]4CO5)cc3C2=O)c1 [AMN-1, 4-(2-Cyclopropyl-6-{6-[(1S,4S)-2-oxa-5-azabicyclo[2.2.1]heptan-5-ylmethyl]-1-oxo-3H-isoindol-2-yl}pyridin-4-yl)-3-(4-methyl-1,2,4-triazol-3-yl)benzonitrile] | ≤ 200 | ≤ 200
7 | COCCOCc1ccc2c(c1)C(=O)N(c1cc(-c3ccc(C#N)cc3-c3nncn3C)cc(C3CC3)n1)C2 [AIQ-2, 4-(2-Cyclopropyl-6-(6-((2-methoxyethoxy)methyl)-1-oxoisoindolin-2-yl)pyridin-4-yl)-3-(4-methyl-4H-1,2,4-triazol-3-yl)benzonitrile] | ≤ 200 | ≤ 200
8 | Cn1cnnc1-c1cc(C#N)ccc1-c1cc(C2CC2)nc(N2Cc3c(Br)cc(CO)cc3C2=O)c1 [ALA-5, 4-{2-[4-Bromo-6-(hydroxymethyl)-1-oxo-3H-isoindol-2-yl]-6-cyclopropylpyridin-4-yl}-3-(4-methyl-1,2,4-triazol-3-yl)benzonitrile] | ≤ 200 | ≤ 200
9 | Cn1cnnc1-c1cc(C#N)ccc1-c1cc(C2CC2)nc(N2Cc3ccc(CNC(C)(C)C4CCC4)cc3C2=O)c1 [AOM-2, 4-[2-(6-{[(2-Cyclobutylpropan-2-yl)amino]methyl}-1-oxo-3H-isoindol-2-yl)-6-cyclopropylpyridin-4-yl]-3-(4-methyl-1,2,4-triazol-3-yl)benzonitrile] | ≤ 200 | ≤ 200
10 | Cn1cnnc1-c1cc(C#N)ccc1-c1cc(C2CC2)nc(N2Cc3ccc(CN4CCOC5(COC5)C4)cc3C2=O)c1 [AOO-2, 4-[2-Cyclopropyl-6-(6-{2,5-dioxa-8-azaspiro[3.5]nonan-8-ylmethyl}-1-oxo-3H-isoindol-2-yl)pyridin-4-yl]-3-(4-methyl-1,2,4-triazol-3-yl)benzonitrile] | ≤ 200 | ≤ 200
11 | Cn1cnnc1-c1cc(C#N)ccc1-c1cc(C2CC2)nc(N2Cc3ccc(CN4CCC5(CC5)C4)cc3C2=O)c1 [AND-1, 4-[2-(6-{5-Azaspiro[2.4]heptan-5-ylmethyl}-1-oxo-3H-isoindol-2-yl)-6-cyclopropylpyridin-4-yl]-3-(4-methyl-1,2,4-triazol-3-yl)benzonitrile] | ≤ 200 | ≤ 200
12 | COCCNCc1cc(Br)c2c(c1)C(=O)N(c1cc(-c3ccc(C#N)cc3-c3nncn3C)cc(C3CC3)n1)C2 [ALB-2, 4-[2-(4-Bromo-6-{[(2-methoxyethyl)amino]methyl}-1-oxo-3H-isoindol-2-yl)-6-cyclopropylpyridin-4-yl]-3-(4-methyl-1,2,4-triazol-3-yl)benzonitrile] | ≤ 200 | ≤ 200
13 | Cn1cnnc1-c1cc(C#N)ccc1-c1cccc(N2Cc3ccc(CNCC4CC4)cc3C2=O)c1 [AJE-2, 3′-(6-(((Cyclopropylmethyl)amino)methyl)-1-oxoisoindolin-2-yl)-2-(4-methyl-4H-1,2,4-triazol-3-yl)-[1,1′-biphenyl]-4-carbonitrile] | ≤ 200 | ≤ 200
14 | Cn1cnnc1-c1cc(C#N)ccc1-c1cc(C2CC2)nc(N2Cc3ccc([C@H]4COC[C@@H](C5CCC5)N4)cc3C2=O)c1 (stereo in doubt) [AOP-4, rac-4-(2-{6-[(3R,5S)-5-Cyclobutylmorpholin-3-yl]-1-oxo-3H-isoindol-2-yl}-6-cyclopropylpyridin-4-yl)-3-(4-methyl-1,2,4-triazol-3-yl)benzonitrile] | ≤ 200 | ≤ 200
15 | CCOc1cc(-c2ccc(C#N)cc2-c2nncn2C)cc(N2Cc3ccc(CNCC4(F)CCC4)cc3C2=O)n1 [AKJ-1, 4-{2-Ethoxy-6-[6-({[(1-fluorocyclobutyl)methyl]amino}methyl)-1-oxo-3H-isoindol-2-yl]pyridin-4-yl}-3-(4-methyl-1,2,4-triazol-3-yl)benzonitrile] | ≤ 200 | ≤ 200
16 | CNC[C@H](O)COc1ccc2c(c1)C(=O)N(c1cc(-c3ccc(C#N)cc3-c3nncn3C)cc(C3CC3)n1)C2 [AJU-3, 4-(2-Cyclopropyl-6-{6-[(2S)-2-hydroxy-3-(methylamino)propoxy]-1-oxo-3H-isoindol-2-yl}pyridin-4-yl)-3-(4-methyl-1,2,4-triazol-3-yl) benzonitrile] | ≤ 200 | ≤ 200
17 | COC[C@@H](C)NCc1cc(F)c2c(c1)C(=O)N(c1cc(-c3ccc(C#N)cc3-c3nncn3C)cc(C3CC3)c1)C2 [ALG-3, 3′-cyclopropyl-5′-[4-fluoro-6-({[(2R)-1-methoxypropan-2-yl]amino}methyl)-1-oxo-3H-isoindol-2-yl]-2-(4-methyl-1,2,4-triazol-3-yl)-[1,1′-biphenyl]-4-carbonitrile] | ≤ 200 | ≤ 200
18 | CN(Cc1ccc2c(c1)C(=O)N(c1cc(-c3ccc(C#N)cc3-c3nncn3C)cc(C3CC3)n1)C2)CC(C)(C)O [AMH-1, 4-[2-Cyclopropyl-6-(6-{[(2-hydroxy-2-methylpropyl)(methyl)amino]methyl}-1-oxo-3H-isoindol-2-yl)pyridin-4-yl]-3-(4-methyl-1,2,4-triazol-3-yl)benzonitrile] | ≤ 200 | ≤ 200
